pIC50: −log10 of the molar value.
Biological target: T1, human bradykinin B2 receptor (hB2R) (Homo sapiens, UniProt P30411)
T1 sequence (P30411 1-391): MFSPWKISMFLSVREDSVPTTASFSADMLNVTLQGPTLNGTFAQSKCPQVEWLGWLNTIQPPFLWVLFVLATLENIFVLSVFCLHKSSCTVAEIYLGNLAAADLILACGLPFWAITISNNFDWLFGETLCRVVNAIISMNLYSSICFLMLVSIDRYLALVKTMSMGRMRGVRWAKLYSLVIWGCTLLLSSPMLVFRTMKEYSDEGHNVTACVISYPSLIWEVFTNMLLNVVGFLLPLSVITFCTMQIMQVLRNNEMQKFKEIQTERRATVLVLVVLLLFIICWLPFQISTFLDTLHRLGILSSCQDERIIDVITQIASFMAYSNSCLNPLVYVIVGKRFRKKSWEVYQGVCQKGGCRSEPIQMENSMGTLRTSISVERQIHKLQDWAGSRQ
Assay: cell-based human bradykinin B2 receptor calcium mobilization (hB2R-CaM) assay
Conditions: antagonistic activity; HTS041C cells; bradykinin at EC80; 25 min preincubation at 37° C.; read-out: IC50-value towards human bradykinin B2 receptor (hB2R)
Text: The following cell-based human bradykinin B2 receptor calcium mobilization (hB2R-CaM) assay was used to determine the antagonistic activity of compounds selected from the example compounds Nos. 1 to 13 towards human bradykinin B2 receptor (hB2R). The assay is defined herein as a standard in vitro B2 receptor activity assay, which can be used to determine IC50 values of the compounds according to the present invention, e. g. the compounds shown in Examples 1-4.
The antagonistic activity of compounds according to the present invention was investigated with the hB2R-CaM assay using the B2 Bradykinin Receptor Stable Cell Line HTS041C (Eurofins, St. Charles MO) and the FLIPR Calcium 6 Assay Kit (Molecular Devices, Wokingham, UK) according to the instructions of the providers. CaM assay measurements were performed with a Flexstation 3 System (Molecular Devices) which allows the precise addition of compounds (B2R antagonists) and bradykinin (B2R agonist) to the cells and adjacent continuous recording of the time-dependent CaM assay signals.
HTS041C cells were cultured in high glucose DMEM cell culture medium (Lonza) supplemented with 10% heat-inactivated FBS (PAN Biotech), 10 mM HEPES, Penicillin/Streptomycin (200 U/mL, 200 μg/mL), 1× non-essential amino acids (Lonza), and 250 μg/mL G418 (Invivogen) in cell incubator at 37° C. in a 5% CO2 atmosphere. One day before the CaM assay experiments cells were seeded in 200 μL DMEM cell culture medium with reduced FBS (5%) and without G418 on clear bottom black 96 well plates (ThermoFisher #165305). Cell starvation was carried out by incubation (37° C., 5% CO2) of 70.000 cells/well for 24 h to 28 h. Immediately prior calcium dye-loading the medium was carefully aspirated and cells were washed with Hank's balanced salt solution (HBSS, Gibco) containing Ca^2+, Mg^2+ and 20 mM HEPES, adjusted to pH 7.4 (HBSS+).
For calcium dye-loading one FLIPR 6 assay aliquot was dissolved in 20 mL HBSS+. 150 μL of the dye loading solution was added to cell plate and incubated for 120 min at 37° C. and 5% CO2. After dye loading the cell plate was immediately transferred to the pre-warmed (37° C.) Flexstation 3 System for CaM assaying.
Freshly prepared compound (B2 receptor antagonists) dilution series (8 pt, n=2) and bradykinin (B2 receptor agonist) solution in non-binding plates (Costar) were transferred to the Flexstation System (source plate) shortly before starting the experiment. Bradykinin was added in EC80 concentration determined in n>3 preliminary experiments with 8 pt concentration response curves (n=8)). CaM assay was executed by Flexstation 3 System starting with recording of calcium-sensitive dye fluorescence in bottom-read Flex modus with ex/em=485 nm/525 nm, cut off(em)=515 nm After 20 s, 50 μL of 4-fold concentrated compound dilutions were added to the cells resulting in a final DMSO (Sigma) concentration of 0.1% in the cell plate. CaM signals were monitored for 80 s after additions for detection of potential agonistic activities. Prior to bradykinin stimulus compound- and vehicle-treated cells were incubated for 25 min at 37° C. within the Flexstation System. Then 50 μL of a 5-fold concentrated bradykinin solution (HBSS+, 0.1% DMSO) was added to trigger CaM signals (Read out: Max-Min values) which were measured for 80 s post bradykinin stimulus.
IC50 determinations were performed by 4 parameter logistic model curve fitting of the 8 pt (n=2) compound concentration response curves using XLFIT (IDBS) software.

| SMILES | pIC50 |
| --- | --- |
| Cc1cc(-n2cc(F)cn2)c2cccc(OCc3c(Cl)cc(F)cc3[C@@H]3COCCN3C(=O)COC(F)F)c2n1 [Compound No. 1, (R)-1-(3-(3-chloro-5-fluoro-2-((4-(4-fluoro-1H-pyrazol-1-yl)-2-methylquinolin-8-yloxy)methyl)phenyl)morpholino)-2-(difluoromethoxy)ethanone] | ≥ 7.60 |
| [2H][C@@]1(c2cc(F)cc(Cl)c2COc2cccc3c(-n4cc(F)cn4)cc(C)nc23)COCCN1C(=O)COC(F)F [Compound No. 1A, 1-[(3R)-3-[3-chloro-5-fluoro-2-({[4-(4-fluoropyrazol-1-yl)-2-methylquinolin-8-yl]oxy}methyl)phenyl](3-deutero)morpholin-4-yl]-2-(difluoromethoxy)ethanone] | ≥ 7.60 |
| Cc1cc(-c2ncnn2C)c2cccc(OCc3c(Cl)cc(F)cc3[C@@H]3COCCN3C(=O)COC(F)F)c2n1 [Compound No. 2, (R)-1-(3-(3-chloro-5-fluoro-2-((2-methyl-4-(1-methyl-1H-1,2,4-triazol-5-yl)quinolin-8-yloxy)methyl)phenyl)morpholino)-2-(difluoromethoxy)ethanone] | ≥ 7.60 |
| CC1=N[C@H](c2cc(F)cc(Cl)c2COc2cccc3c(-n4cc(F)cn4)cc(C)nc23)CO1 [Compound No. 3, (R)-4-(3-chloro-5-fluoro-2-((4-(4-fluoro-1H-pyrazol-1-yl)-2-methylquinolin-8-yloxy)methyl)phenyl)-2-methyl-4,5-dihydrooxazole] | 5.30 to 6.30 |
| Cc1cc(-n2cc(F)cn2)c2cccc(OCc3c(Cl)cc(F)cc3[C@@H]3COCC(=O)N3)c2n1 [compound 4] | 5.30 to 6.30 |
| Cc1cc(-n2cc(F)cn2)c2cccc(OCc3c(Cl)cc(F)cc3[C@@H]3COCCN3)c2n1 [compound 5] | 5.30 to 6.30 |
| Cc1cc(-n2cc(F)cn2)c2cccc(OCc3c(Cl)cc(F)cc3[C@@H]3COCCN3C(=O)[C@@H](C)O)c2n1 [compound 6] | 6.30 to 7.59 |
| Cc1cc(-n2cc(F)cn2)c2cccc(OCc3c(Cl)cc(F)cc3[C@@H]3COCCN3C(=O)C(C)(C)O)c2n1 [compound 7] | 6.30 to 7.59 |
| Cc1cc(-n2cc(F)cn2)c2cccc(OCc3c(Cl)cc(F)cc3[C@@H]3COCCN3C(=O)c3cnco3)c2n1 [compound 8] | 6.30 to 7.59 |
| Cc1cc(-c2ncnn2C)c2cccc(OCc3c(Cl)cc(F)cc3[C@@H]3COCCN3C(=O)C(C)(C)O)c2n1 [compound 9] | 6.30 to 7.59 |
| Cc1cc(-c2ncnn2C)c2cccc(OCc3c(Cl)cc(F)cc3[C@@H]3COCCN3C(=O)[C@H](C)O)c2n1 [compound 10] | ≥ 7.60 |
| Cc1cc(-c2ncnn2C)c2cccc(OCc3c(Cl)cc(F)cc3[C@@H]3COCCN3C(=O)c3cnco3)c2n1 [compound 11] | ≥ 7.60 |
| Cc1cc(-c2ncnn2C)c2cccc(OCc3c(Cl)cc(F)cc3[C@@H]3COCC(=O)N3)c2n1 [compound 12] | 6.30 to 7.59 |
| Cc1cc(-c2ncnn2C)c2cccc(OCc3c(Cl)cc(F)cc3[C@@H]3COCCN3)c2n1 [compound 13] | 6.30 to 7.59 |

Reference: patent US12391681B2, “(R)-3-(3-chloro-5-fluoro-2-((4-(1h-pyrazol-1-yl)-2-methylquinolin-8-yloxy)methyl)phenyl)morpholine derivatives and related compounds as bradykinin (BK) B2 receptor antagonist for treating skin diseases” (Pharvaris GmbH, priority 2019, dated 2025)
